Laboratory results taken from patent EP0351720B1, “Use of substituted 3,4-dihydro-2H-benzopyrans as medicaments against obstructive disorders of the lung” (HOECHST AKTIENGESELLSCHAFT, priority 1988, dated 1990).

Test system: Histamin-induzierte Bronchokonstriktion
Assay: Influence on histamine-induced bronchoconstriction in anaesthetised, ventilated guinea pigs (modified Konzett-Rössler method), test substance given as aerosol
Type: in vivo, Meerschweinchen
Settings: for % Hemmung der Histamin-induzierten Bronchokonstriktion: n = 6, change vs control
Experimental: a) Beeinflussung von Atemwegsstörungen Einfluß auf die histamin-induzierte Bronchokonstriktion am Meerschweinchen
Albino-Meerschweinchen beiderlei Geschlechts mit einem Gewicht zwischen 450 und 550 g wurden mit 60 mg/kg Pentobarbital i.p. narkotisiert. Nach Tracheotomie wurden sie mit einer Starlingpumpe (Fa. Braun, Melsungen) beatmet. Das Atemvolumen wurde so gewählt, daß die Lungen ausgiebig belüftet wurden. Der Beatmungsdruck wurde mit Hilfe einer Wassersäule auf 80 mm H₂O eingestellt (Rosenthal und Dervinis). Die Atemfrequenz betrug 30 Atemzüge/min. Ein Überschuß an verfügbarer Atemluft kann durch einen Nebenweg im Einatemschlauch zu einer als Wasser-Überdruckventil geschalteten Waschflasche gelangen. Wird von der Starling-Pumpe durch den Einatemschlauch Luft in die Lunge geblasen, so füllt sich diese so lange, bis der Druck in dem System den durch die Höhe der Wassersäule eingestellten Wert (80 mm H₂O) erreicht hat. Die noch weiter zuströmende Luft fließt durch das Überdruckventil in die Waschflasche. Dieser Luftüberschuß, der nach Überschreiten des eingestellten Drucks in die Flasche entweicht, wird mit Hilfe eines Pistonrekorders gemessen und gilt als Maß für eine Veränderung des Atemwiderstands. Die Messung erfolgte in einer von der ursprünglichen Konzett-Rössler-Methode leicht modifizierten Weise, indem der Pistonrekorder durch ein Staudruckrohr nach Fleisch (Typ 0000) ersetzt wurde. Der auftretende Druckunterschled wurde mit einem Differenzdruckwandler Statham PM 97 TC erfaßt. Zur Aufzeichnung der Meßwerte diente ein Mehrfachkanalschreiber der Fa. Hellige.
Die Testsubstanzen werden als Aerosol mit Hilfe eines Ultraschallverneblers (Monaghan M 650) verabreicht. Die Verneblerkammer wird in den Einatemschlauch der Atempumpe zwischengeschaltet und den Tieren gestattet, das Aerosol 1 min lang einzuatmen. Das zu vernebelnde Volumen beträgt 0,02 ml/min.
Vernebelt wird eine physiologische Kochsalzlösung, der die zu prüfende Substanz in Form einer Lösung in Propandiol zugesetzt wird.
In einem Kontrollversuch wird sichergestellt, daß das Lösemittel Propandiol/physiologische Kochsalzlösung keine Eigenwirkung besitzt.
Eine Bronchokonstriktion wird durch Gaben von Histamindihydrochlorid (6 - 12 »g/kg i.v.) induziert. Die Injektion erfolgt durch einen in die V. jugularis eingeführten Katheter. Die Dosierung wird so gewählt, daß ein respiratorischer "Überfluß" von 60 % des angebotenen Atemvolumens während der Histamin-induzierten Bronchokonstriktion auftritt. Die Histamingaben erfolgen in 5-Minuten-Intervallen. Nach mindestens 3 gut reproduzierbaren Bronchokonstriktionen werden die Testsubstanzen als Aerosol 1 min lang verabreicht und nach einer Einwirkungszeit von 2 min erneut die Bronchokonstriktion induziert und in 5-Minuten-Intervallen wiederholt. […]

SMILES: CC1(C)Oc2ccc(S(=O)(=O)c3ccccc3)cc2C(N2CCCC2=O)C1O (single isomer, unassigned; (+)) [Beispiel 5a, (+)-3,4-Dihydro-2,2-dimethyl-6-phenylsulfonyl-4-(2-oxo-1-pyrrolidinyl)-2H-benzo[b]pyran-3-ol]
- ED50 (Cavia porcellus, inhaled or nasal, aerosol, determined by linear regression of the % inhibition results, read-out: ID₅₀): 4.39 µg/kg
- % Hemmung der Histamin-induzierten Bronchokonstriktion (Dosis 1 »g/kg as aerosol for 1 min): 14 ± 4%
- % Hemmung der Histamin-induzierten Bronchokonstriktion (Dosis 3 »g/kg as aerosol for 1 min): 35 ± 4%
- % Hemmung der Histamin-induzierten Bronchokonstriktion (Dosis 10 »g/kg as aerosol for 1 min): 77 ± 7%
